Data on two compounds can be found in patent publication US20220378042A1, “Herbicide combinations comprising glufosinate and oxyfluorfen” (BASF SE, priority 2020, published 2022).

Read-outs that look alike come from different tables or passages of the source.

The test system of one experiment is Chenopodium album. In words: greenhouse post-emergence herbicidal activity on Chenopodium album. The settings on record: for inhibition at 10.2 g/ha: 10.2 g ai/ha, scale 0-100% damage vs untreated, read-out: Solo Oxyfluorfen % activity; for inhibition at 327 g/ha: read-out: Solo Glufosinate % activity. In kind it is in vivo. An excerpt: (§1) For the post-emergence treatment, the test plants were first grown to 3 to 4 inch (7.6 to 10.2 cm) tall, and only then treated. Here, the herbicidal compositions were suspended or emulsified in water as distribution medium and sprayed using finely distributing nozzles.
(§2) The herbicide compounds applied in the examples were used as commercially available formulations which have been diluted with deionized water to a suitable concentration.
(§3) Oxyfluorfen (commercial product name: Goal 2XL) was used as an emulsifiable concentrate having an active ingredient concentration of 240 g/l. Glufosinate (commercial product name: Liberty) was used as an aqueous soluble liquid of glufosinate ammonium having an active ingredient concentration of 280 g/l. Adjuvants of ammonium sulfate (AMS) and non-ionic surfactant (NIS) were added in all treatments. AMS and NIS were AMS Liquid and Induce at rates of 1680 g/ha and 0.25% (v/v), respectively.
(§4) The test period extended over 28 days after treatment (DAT). During this time, the plants were tended and their response to the individual treatments was evaluated.
(§5) The evaluation for the damage caused by the chemical compositions was carried out using a scale from 0 to 100%, compared to the untreated control plants. Here, 0 means no damage and 100 means complete destruction of the plants.
(§6) The plants used in the greenhouse experiments belonged to the following species:
(§7) E=X+Y−(X·Y/100) • where X=effect in percent using Oxyfluorfen at an application rate a; • Y=effect in percent using glufosinate at application rate b; • E=expected effect (in %) of Oxyfluorfen plus glufosinate at application rates a+b.
(§8) The value E corresponds to the effect (plant damage or injury) which is to be expected if the activity of the individual compounds is just additive. If the observed effect is higher than the value E calculated according to Colby, a synergistic effect is present.

For another experiment, the system named is Echinochloa crus-galli. Briefly: greenhouse post-emergence herbicidal activity on Echinochloa crus-galli. The settings on record: for inhibition at 10.2 g/ha: 10.2 g ai/ha, scale 0-100% damage vs untreated, read-out: Solo Oxyfluorfen % activity; for inhibition at 327 g/ha: read-out: Solo Glufosinate % activity. In kind it is in vivo.
Text: as §1, §2, §3, §4, §5, §6, §7, §8

For the compound `CCOc1cc(Oc2ccc(C(F)(F)F)cc2Cl)ccc1[N+](=O)[O-]` [Oxyfluorfen], the inhibition at 10.2 g/ha in the experiment on Chenopodium album (168 h, 7 DAT) stood at 33%; with Chenopodium album (336 h, 14 DAT), 25%; with Chenopodium album (504 h, 21 DAT) it was 30%; with Echinochloa crus-galli (168 h, 7 DAT), 28%; in the experiment on Echinochloa crus-galli (336 h, 14 DAT) it was 15%; in the experiment with Echinochloa crus-galli (504 h, 21 DAT), 20%.

Take `CP(=O)(O)CCC(N)C(=O)O` (racemic) [Glufosinate, (2RS)-2-amino-4-[hydroxy(methyl)phosphinoyl]butyric acid]: the inhibition at 327 g/ha with Chenopodium album (168 h) amounted to 81%; with Chenopodium album (336 h) it was 75%; in the experiment with Chenopodium album (504 h), 78%; with Echinochloa crus-galli (168 h) it was 84%; in the experiment with Echinochloa crus-galli (336 h), 25%; in the experiment on Echinochloa crus-galli (504 h), 20%.
